# Results as given in PMC4534002 (Journal of medicinal chemistry, 2013).
# What was measured:
# CYP3A4 [1] = molecular target: T1, CYP3A4 (Homo sapiens, UniProt P08684); experiment: Redox potential measurement of inhibitor-bound CYP3A4; settings: for Eo,7 (midpoint redox potential of the inhibitor-bound CYP3A4): ligand-free CYP3A4 ~−300 mV, benzyl viologen as redox dye; for negative shift (decrease) in heme redox potential Eo,7 caused by ligation: relative to ligand-free CYP3A4
# CYP3A4 [2] = molecular target: T1, CYP3A4; experiment: Dissociation during repetitive concentration/dilution cycles; format: binding
# CYP3A4 S119A = CYP3A4 S119A (Homo sapiens, UniProt P08684, S119A); experiment: Thermal denaturation of CYP3A4 S119A-inhibitor complex; format: binding; settings: for Tm: CYP3A4 S119A mutant, ligand-free 54.0 ± 0.1, with 2% DMSO 53.5 ± 0.1; for decrease in Tm of ligand-bound S119A CYP3A4 vs wild type: S119A vs WT
# CYP3A4 [3] = molecular target: T1, CYP3A4; experiment: Thermal denaturation of CYP3A4-inhibitor complex, WT; format: binding; settings: WT CYP3A4 2 µM, 10 µM inhibitor; ligand-free 52.6 ± 0.1, with 2% DMSO 52.1 ± 0.1
# CYP3A4 [4] = molecular target: T1, CYP3A4; experiment: BFC hydroxylase activity inhibition in reconstituted system with CPR; settings: from IC50 values
# CYP3A4 [5] = molecular target: T1, CYP3A4; experiment: Spectral binding titration; settings: WT CYP3A4, relative to ritonavir
SMILES,"Eo,7 (midpoint redox potential of the inhibitor-bound CYP3A4) (CYP3A4 [1])","negative shift (decrease) in heme redox potential Eo,7 caused by ligation (CYP3A4 [1])",reversibility of binding (dissociation from CYP3A4) (CYP3A4 [2]),Tm (CYP3A4 S119A) [°C],decrease in Tm of ligand-bound S119A CYP3A4 vs wild type (CYP3A4 S119A),Tm (melting temperature of the CYP3A4-inhibitor complex) (CYP3A4 [3]) [°C],fold more effective inhibition of BFC hydroxylation than ritonavir (CYP3A4 [4]),fold lower binding affinity for CYP3A4 than ritonavir (from Ks) (CYP3A4 [5]) [fold],fold lower inactivating potency than ritonavir (CYP3A4 [4]) [fold]
CC(C)c1nc(CN(C)C(=O)N[C@H](C(=O)N[C@H](CC[C@H](Cc2ccccc2)NC(=O)OCc2cnc[nH]2)Cc2ccccc2)C(C)C)cs1 [compound 1],<<-370 mV,> 70 mV,dissociated,55.5 ± 0.2,1–1.6 °C,56.5 ± 0.2,,,
CC(C)c1nc(CN(C)C(=O)N[C@H](C(=O)N[C@H](CC[C@H](Cc2ccccc2)NC(=O)OCc2cccnc2)Cc2ccccc2)C(C)C)cs1 [compound 3],−350 ± 5 mV,~70 mV,irreversibly,55.6 ± 0.2,1–1.6 °C,57.2 ± 0.2,2–4 fold,,
CC(C)c1nc(CN(C)C(=O)N[C@H](C(=O)N[C@H](CC[C@H](Cc2ccccc2)NC(=O)OCc2cnco2)Cc2ccccc2)C(C)C)cs1 [compound 2],≈ −370 mV,~ 50 mV,dissociated,53.2 ± 0.1,1–1.6 °C,54.8 ± 0.1,,10,6
